# Assay results reported in paper PMC5515844, “A new Prenylated Flavonoid induces G0/G1 arrest and apoptosis through p38/JNK MAPK pathways in Human Hepatocellular Carcinoma cells” (Scientific Reports, 2017).
# Assays:
# TE-1 = experiment: MTT cytotoxicity assay; type: cell-based; conditions: Homo sapiens, 48 h, mean ± SD
# Protocol: (§1) HepG2 and Hep3B (human hepatoma cells), Bcap37 and MCF-7 (human breast cancer cells), TE-1 (human esophageal cancer cells), A549 (human lung carcinoma cells), U251 and U87 (human glioma cells), were cultured in Dulbecco’s modified Eagle’s medium (DMEM) supplemented with 10% fetal bovine serum (FBS) and 1% penicillin/streptomycin (10000 U/mL penicillin, 10000 μg/ml streptomycin). SH-SY5Y (human neuroblastoma cells), LO2 (human normal liver cell) were grown in RPMI 1640 containing 10% FBS and 100 µg/ml penicillin, 100 µg/ml streptomycin. HepG2, Hep3B, MCF-7, TE-1, A549, U87, U251 and SHSY5Y cells were obtained from the American Type Culture Collection (Manassas, VA, USA). Bcap37 and LO2 cells were purchased from the Cell Bank of Chinese Academy of Sciences (Shanghai, China). All cells were incubated in a humidified atmosphere containing 5% CO2 at 37 °C.
# (§2) Cells seeded in 96-well plates with 5 × 10^3 cells/well were adhered overnight and incubated with vehicle control (DMSO) or diverse concentrations of compounds for 48 h. After treatment, 20 μL of MTT (5 mg/mL) was added to each well and incubated for another 4 h at 37 °C. Then, 150 μL of DMSO/well was appended after removed the supernatant to dissolve the formed purple formazan crystals and the color absorbance was measured at 490 nm using a microplate reader (Molecular Devices, Thermo, CA, USA). The inhibition rate (%) was calculated as (A490(control) − A490(drug groups))/(A490(control) − A490(blank)) × 100 and the value of IC50 (the concentration that caused 50% inhibition of cell viability) was determined using SPSS 20.0. This experiment was measured in triplicate, independently.
# MCF-7 = experiment: MTT cytotoxicity assay; type: cell-based; conditions: Homo sapiens, MCF7, 48 h, mean ± SD
# Protocol: as §1, §2
# Hep3B cells = experiment: Clonogenic assay; type: cell-based, human; conditions: two weeks, dose-dependent
# Protocol: (§3) The clonogenic assay was performed to appraise the effect of daphnegiravone D on cell proliferation. Hep3B (800 cells/well) or HepG2 (4,000 cells/well) cells were seeded in 6-well plates in 2 mL complete media overnight and attachment cells were incubated with various concentrations of daphnegiravone D for two weeks. Then, cells were washed twice with PBS carefully and fixed with 4.0% paraformaldehyde for 30 min, and stained with 0.5% crystal violet at room temperature for 30 min. Colonies containing exceeding 50 cells/colony were counted under microscope. All experiments were independently performed three times.
# HepG2 cells = experiment: Clonogenic assay; type: cell-based, human; conditions: HepG2, two weeks, dose-dependent
# Protocol: as §3
# [1] = system: cyclin D1, cyclin E1, CDK2, CDK4, cleaved-caspase 3, PARP, p38, JNK, ERK in Hep3B cells; experiment: Western blotting analysis; type: cell-based, human
# Protocol: (§4) Cells that after treatment were harvested and lysed by radio-immunoprecipitation assay (RIPA) buffer containing protease inhibitor (PMSF, 1 mM) on ice for 30 min. Cells lysates were centrifuged at 12,000 g for 15 min at 4 °C and following the protein concentration in the supernatant was determined using a BCA protein assay kit (Thermo Scientific, Waltham, USA), then cell extracts were added SDS-PAGE sample loading buffer and denatured at 100 °C for 10 min. Equal amount of protein (30 μg) were separated on a 8–15% SDS-PAGE and transferred onto PVDF membranes (0.2 μm, Millipore) using an electroblotting apparatus (Bio-Rad). The membranes were blocked with 5% milk in PBS-T (PBS containing 0.1% Tween 20) for 2 h at room temperature and incubated with primary antibodies at 4 °C overnight. After washed three times with PBS-T, the membranes were incubated with horseradish peroxi-dase (HRP)-conjugated secondary antibody (1:5,000) at room temperature for 2 h, then washed again, and the immunoreactive bands were detected using ECL reagents (ThermoFisher, Waltham, MA).
# [2] = system: cyclin D1, cyclin E1, CDK2, CDK4, cleaved-caspase 3, PARP, p38, JNK, ERK in HepG2 cells; experiment: Western blotting analysis; type: cell-based, human
# Protocol: as §4
structure (smiles),measurement,setting,value
"COc1c(-c2ccc(O)c(CC=C(C)C)c2)oc2c(CC=C(C)C)c(O)cc(O)c2c1=O [Compound 1, daphnegiravone D]",IC50,TE-1,19.3 ± 2.3 µM
same,IC50,MCF-7,22.3 ± 2.18 µM
same,colonies,Hep3B cells,dramatically reduced
same,colonies,HepG2 cells,dramatically reduced
same,expression of cyclin D1,[1],not significantly changed
same,phosphorylated status of ERK,[1],no distinct change
same,phosphorylation level of p38,[1]; 48 h,markedly increased
same,levels of cleaved-caspase 3 and -PARP,"[1]; 48 h, dose-dependent",increased
same,level of phosphorylated JNK,[1]; dose-dependent,dramatically reduced
same,"levels of cyclin E1, CDK2 and CDK4",[1]; dose-dependent,decreased
same,expression of cyclin D1,[2]; HepG2,not significantly changed
same,phosphorylated status of ERK,[2]; HepG2,no distinct change
same,phosphorylation level of p38,"[2]; HepG2, 48 h",markedly increased
same,levels of cleaved-caspase 3 and -PARP,"[2]; HepG2, 48 h, dose-dependent",increased
same,level of phosphorylated JNK,"[2]; HepG2, dose-dependent",dramatically reduced
same,"levels of cyclin E1, CDK2 and CDK4","[2]; HepG2, dose-dependent",decreased
